Test [1] deals with MrHR (Mastigocladopsis repens, UniProt A0A6P3CW41, E182T). Description: biochemical.
For test [2], the target named is MrHR (Mastigocladopsis repens, UniProt A0A6P3CW41). Description: biochemical.

As a reminder, the Kd is the free concentration of one partner at which half of the binding sites on the other are occupied at equilibrium, for simple one-to-one binding.

Sequence of MrHR (Mastigocladopsis repens, UniProt A0A6P3CW41, E182T) (A0A6P3CW41 1-232 E182T): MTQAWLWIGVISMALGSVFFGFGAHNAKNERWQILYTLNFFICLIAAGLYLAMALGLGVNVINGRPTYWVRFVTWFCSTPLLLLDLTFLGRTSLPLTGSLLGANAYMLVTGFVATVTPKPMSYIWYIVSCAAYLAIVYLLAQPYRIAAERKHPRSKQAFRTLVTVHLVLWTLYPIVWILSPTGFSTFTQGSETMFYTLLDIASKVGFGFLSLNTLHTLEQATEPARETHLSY
Sequence of MrHR (Mastigocladopsis repens, UniProt A0A6P3CW41) (A0A6P3CW41 1-232): as the sequence (A0A6P3CW41 1-232 E182T) above, with T182E counted along it

In the case of `Cl` [Cl^−], the Kd was 1.18 mM at MrHR [1] and 4.98 mM on MrHR [2].
